Measurements taken from patent publication US5599548A, “Skin care compositions containing fatty acid amides and retinol or retinyl ester” (priority 1995, dated 1997).
Read-outs that look alike come from different tables or passages of the source.

What was measured:
[1] = system: TGase I (keratinocyte transglutaminase level); experiment: Transglutaminase (TGase I) ELISA assay (keratinocyte differentiation); format: cell-based, human; conditions: for effect on keratinocyte TG1 levels / differentiation, in words: concentrations as in the respective Example
Protocol: (§1) Human keratinocytes, isolated from neonatal foreskin by trypsin treatment were grown in Dulbecco Modification Eagle (DME) Hams F12 (1:1) medium/10% fetal calf serum in the presence of irradiated 3T3 mouse fibroblasts for establishing dividing keratinocyte colonies. Cells were grown under the above condition until their second passage and kept frozen for future use. […] On day 7, when the cells were 80-90% confluent, they were trypsinized and plated in the serum-free medium for the various experiments.
During the process of terminal differentiation in the epidermis, a 15 nm thick layer of protein, known as the cornified envelope (CE) is formed on the inner surface of the cell periphery. The CE is composed of numerous distinct proteins which have been cross-linked together by the formation of N^ε -(γ-glutamyl) lysine isodipeptide bonds catalyzed by the action of at least two different transglutaminases (TGases) expressed in the epidermis. TGase I is expressed in abundance in the differentiated layers of the epidermis, especially the granular layer, but is absent in the undifferentiated basal epidermis. Thus TGase I is a useful marker of epidermal keratinocyte differentiation with high TGase I levels indicating a more differentiated state. An ELISA based TGase I assay, using a TGase I antibody, was used to assess the state of differentiation of the cultured keratinocytes in the examples that follow.
Keratinocytes (cultured as described above) were plated in 96 well plates at a density of 3,000 cells per well in 200 μl media. After incubation for four days the media was changed to media containing test compounds (six replicates per test). The cells were cultured for a further 72 hours after which time the media was aspirated and the plates stored at -70° C. Plates were removed from the freezer, and the cells washed with PBS. 100 μl sterile water was added and the cells were freeze fractured by freezing at -70° C. then thawing. The cells were incubated for one hour at room temperature (R/T) with PBS/3% BSA (wash buffer, bovine serum albumin), then rinsed with a fresh aliquot of wash buffer. Cells were incubated with 50 μl of primary antibodies monoclonal anti-human transglutaminase (IgG) obtained from Amersham (mouse) diluted 1:300 in wash buffer for one hour, 37° C. then rinsed two times with wash buffer. Cells were then incubated with 50 μl of secondary antibody (Feb fragment, peroxidase conjugated anti-mouse IgG obtaining from Amersham) diluted 1:200 in wash buffer for one hour at 37° C., then rinsed two times with wash buffer. Cells were incubated with substrate solution (4 mg o-phenylene diamine and 3.3 μl 30% H2 O2 in 10 ml 0.1M citrate buffer pH 5.0) for five minutes, R/T, in darkness (under aluminum foil). The reaction was stopped by the addition of 50 μl 4N H2 SO4. The absorbance of samples was read at 492 nm in the plate reader. Out of the six replicates, four were treated with both antibodies, two were treated only with the secondary antibody (i.e., to determine background binding of enzyme conjugated Ab). TGase levels were determined by subtracting background from the readings from each treatment and determining mean ±s.d. for the replicates exposed to both Ab.

[2] = system: Human keratinocytes; experiment: 3H-Thymidine incorporation (keratinocyte proliferation); format: cell-based; conditions: for activity at 0.25 µM / activity at 0.025 µM / activity at 0.0025 µM: Homo sapiens, Keratinocyte; for activity at 0.25 µM / mean Thymidine incorp./μg protein ± s.d: 2.5 × 10^-7 M; for activity at 0.0025 µM: 2.5 × 10^-9 M; for effect on keratinocyte proliferation, in words: concentrations as in the respective Example
Protocol: as §1
The incorporation of […] by cultured keratinocytes was used as an assay of keratinocyte proliferation. Thymidine is one of four deoxynucleosides which are the monomeric units of DNA, the universal library of genetic information in the animal kingdom. Prior to cell division of a somatic cell such as a keratinocyte, the complete genome of the cell undergoing cell division is replicated. This involves large scale DNA synthesis by the cell and enables both daughter cells to receive identical copies of the genetic material. When ^3 H-thymidine is included in the culture media of keratinocytes which are synthesizing DNA in preparation for cell division then the labelled nucleoside is incorporated into the newly synthesized DNA. The extent of incorporation of ^3 H-thymidine into a population of cells is proportional to the rate of DNA synthesis by this population of cells and therefore an indication of their cellular proliferation.
Keratinocytes (that were cultured as described above) were plated in 24 well plates at a density of 40,000 cells per well in 1 ml media. After incubation for four days or until the cells were 60-70% confluent, the media was changed. Test compounds were added (in triplicate) to the wells 24 hours after the media change, and four hours later 1μCi^3 H-Thymidine in 50 μl media was added per well. Cells were incubated for a further 24 hours. Media was removed from the cells, 10% ice cold trichloroacetic acid (TCA) added and plates were incubated on ice for 30 minutes. Cells were washed five times with 5% TCA and allowed to dissolve in 500 μl 0.1M NaOH for at least one hour (usually overnight). The preparations were neutralized with 0.1M HCl; 50 μl of the cell preparation was used to determine total protein content. Disintegrations per minute (DPM) from ^3 H labelling of DNA was determined by liquid scintillation counting of […] of the cell preparation. Thymidine incorporation results were expressed as DPM/μg protein.

[3] = 24 h, Table 7A, 24 h, n = 9, read-out: mean Thymidine incorp/μg protein ± s.d
[4] = 24 h, Table 7A, 24 h, n = 9, read-out: thymidine incorporation, % control

CC1=C(/C=C/C(C)=C/C=C/C(C)=C/CO)C(C)(C)CCC1 [ROH, retinol]
activity at 0.25 µM ([1]; Homo sapiens, Keratinocyte, 72 h, Table 1B, 2.5 × 10^-7 M, 72 h, n = 3, read-out: Transglutaminase level, % control): 67%
activity at 0.025 µM ([1]; Homo sapiens, Keratinocyte, 72 h, Table 1B, 2.5 × 10^-8 M, 72 h, n = 3, read-out: Transglutaminase level, % control): 86%
activity at 0.0025 µM ([1]; Homo sapiens, Keratinocyte, 72 h, Table 1B, 2.5 × 10^-9 M, 72 h, n = 3, read-out: Transglutaminase level, % control): 97%
activity at 0.25 µM ([1]; Homo sapiens, Keratinocyte, 72 h, Table 2B, RA, ROH 2.5 × 10^-7 M, linoleoyl-DEA 10^-6 M, alone or combined, 72 h, n = 9, read-out: TGase (TG1) level, % control): 59%
activity at 0.25 µM ([1]; Homo sapiens, Keratinocyte, 72 h, Table 6A, RA, ROH 2.5 × 10^-7 M, formamide 10^-7 M, alone or combined, 72 h, n = 3, read-out: TGase (TG1) level, % control): 71%
activity at 0.25 µM ([1]; Homo sapiens, Keratinocyte, 72 h, Table 6B, RA, ROH 2.5 × 10^-7 M, acetamide 10^-7 M, alone or combined, 72 h, n = 3, read-out: TGase (TG1) level, % control): 65%
activity at 0.25 µM ([1]; Homo sapiens, Keratinocyte, 72 h, Table 6C, RA, ROH 2.5 × 10^-7 M, pentanoyl-DEA 10^-7 M, alone or combined, 72 h, n = 3, read-out: TGase (TG1) level, % control): 67%
activity at 0.25 µM ([1]; Homo sapiens, Keratinocyte, Table 4A, RA, retinol 2.5 × 10^-7 M, cocoyl-DEA 10^-7 M, alone or combined, n = 3, read-out: TGase (TG1) level, % control): 82%
activity at 0.025 µM ([1]; Homo sapiens, Keratinocyte, Table 4B, RA, retinol 2.5 × 10^-8 M, cocoyl-MEA 10^-8 M, alone or combined, n = 3, read-out: TGase (TG1) level, % control): 44%
activity at 0.25 µM ([1]; Homo sapiens, Keratinocyte, Table 5A, RA, retinol 2.5 × 10^-7 M, linoleic acid 10^-6 M, alone or combined, n = 3, read-out: TGase (TG1) level, % control): 39%
activity at 0.025 µM ([1]; Homo sapiens, Keratinocyte, Table 5B, RA, retinol 2.5 × 10^-8 M, methyl linoleate 10^-8 M, alone or combined, n = 3, read-out: TGase (TG1) level, % control): 69%
mean Transglutaminase ELISA level ± s.d ([1]; Table 1B, 2.5 × 10^-7 M, 72 h, n = 3): 0.290 ± 0.043
mean Transglutaminase ELISA level ± s.d ([1]; Table 1B, 2.5 × 10^-8 M, 72 h, n = 3): 0.371 ± 0.054
mean Transglutaminase ELISA level ± s.d ([1]; Table 1B, 2.5 × 10^-9 M, 72 h, n = 3): 0.416 ± 0.035
mean TGase ± s.d ([1]; Table 2B, RA, ROH 2.5 × 10^-7 M, linoleoyl-DEA 10^-6 M, alone or combined, 72 h, normalized to ethanol control, n = 9): 0.594 ± 0.542
mean TGase ± s.d ([1]; Table 4A, RA, retinol 2.5 × 10^-7 M, cocoyl-DEA 10^-7 M, alone or combined, n = 3): 0.145 ± 0.070
mean TGase ± s.d ([1]; Table 4B, RA, retinol 2.5 × 10^-8 M, cocoyl-MEA 10^-8 M, alone or combined, n = 3): 0.054 ± 0.013
mean TGase ± s.d ([1]; Table 5A, RA, retinol 2.5 × 10^-7 M, linoleic acid 10^-6 M, alone or combined, n = 3): 0.042 ± 0.112
mean TGase ± s.d ([1]; Table 5B, RA, retinol 2.5 × 10^-8 M, methyl linoleate 10^-8 M, alone or combined, n = 3): 0.199 ± 0.093
mean TGase level ± s.d ([1]; Table 6A (Effect on Keratinocyte TGase), RA, ROH 2.5 × 10^-7 M, formamide 10^-7 M, alone or combined, 72 h, n = 3): 0.351 ± 0.046
mean TGase level ± s.d ([1]; Table 6B (Effect on Keratinocyte TGase), RA, ROH 2.5 × 10^-7 M, acetamide 10^-7 M, alone or combined, 72 h, n = 3): 0.317 ± 0.043
mean TGase level ± s.d ([1]; Table 6C (Effect on Keratinocyte TGase), RA, ROH 2.5 × 10^-7 M, pentanoyl-DEA 10^-7 M, alone or combined, 72 h, n = 3): 0.290 ± 0.043
effect on keratinocyte TG1 levels / differentiation, in words ([1]; listed as Retinol): significantly less effective than retinoic acid at inhibiting keratinocyte differentiation
effect on keratinocyte TG1 levels / differentiation, in words ([1]; listed as retinol): decrease in transglutaminase level was dose dependent
activity at 0.25 µM ([2]; 24 h, Table 1A, first RA/ROH pair, 24 h, n = 3, read-out: thymidine incorporation, % control): 106%
activity at 0.25 µM ([2]; 24 h, Table 1A, second RA/ROH pair, 24 h, n = 3, read-out: thymidine incorporation, % control): 97%
activity at 0.25 µM ([2]; 24 h, Table 1A, third RA/ROH pair, 24 h, n = 3, read-out: thymidine incorporation, % control): 94%
activity at 0.025 µM ([2]; 24 h, Table 2A, RA, ROH 2.5 × 10^-8 M, linoleoyl-DEA 10^-9 M, alone or combined, 24 h, n = 9, read-out: thymidine incorporation, % control): 102%
activity at 0.025 µM ([2]; 24 h, Table 2A, RA, ROH 2.5 × 10^-8 M, linoleoyl-DEA 10^-9 M, alone or combined, 24 h, normalized to ethanol control, n = 9, read-out: mean Thymidine incorp./μg protein ± s.d): 102 ± 15.2%
activity at 0.025 µM ([2]; 24 h, Table 4C, RA, retinol 2.5 × 10^-8 M, palmitoyl-MEA 10^-6 M, alone or combined, n = 3, read-out: thymidine incorporation, % control): 101%
activity at 0.025 µM ([2]; 24 h, Table 4D, RA, ROH 2.5 × 10^-8 M, linoleoyl-MEA 10^-9 M, alone or combined, 24 h, n = 3, read-out: thymidine incorporation, % control): 106%
activity at 0.025 µM ([2]; 24 h, Table 4D, RA, ROH 2.5 × 10^-8 M, linoleoyl-MEA 10^-9 M, alone or combined, 24 h, normalized to ethanol control, n = 3, read-out: mean Thymidine incorp./μg protein ± s.d): 106 ± 27%
activity at 0.25 µM [2, 3]: 102 ± 16.5%
activity at 0.25 µM [2, 4]: 102%
activity at 0.025 µM ([2]; 24 h, Table 7A, 2.5 × 10^-8 M, 24 h, n = 9, read-out: mean Thymidine incorp/μg protein ± s.d): 101 ± 15.2%
activity at 0.025 µM ([2]; 24 h, Table 7A, 2.5 × 10^-8 M, 24 h, n = 9, read-out: thymidine incorporation, % control): 101%
activity at 0.0025 µM [2, 3]: 99.5 ± 12.3%
activity at 0.0025 µM [2, 4]: 100%
activity at 0.025 µM ([2]; Table 4C, RA, retinol 2.5 × 10^-8 M, palmitoyl-MEA 10^-6 M, alone or combined, control = 1.000, n = 3, read-out: mean Thymidine incorp./μg protein ± s.d): 101 ± 8.8%
mean Thymidine incorp./μg protein ± s.d ([2]; Table 1A, first RA/ROH pair, 24 h, n = 3): 2218 ± 73 DPM/μg protein
mean Thymidine incorp./μg protein ± s.d ([2]; Table 1A, second RA/ROH pair, 24 h, n = 3): 2034 ± 46 DPM/μg protein
mean Thymidine incorp./μg protein ± s.d ([2]; Table 1A, third RA/ROH pair, 24 h, n = 3): 1977 ± 19 DPM/μg protein
effect on keratinocyte proliferation, in words [2]: minor, non-significant stimulatory effect on keratinocyte proliferation
effect on keratinocyte proliferation, in words ([2]; listed as Retinol): completely ineffective at increasing keratinocyte proliferation
effect on keratinocyte proliferation, in words ([2]; listed as retinol): Neither 10^-8 M palmitoyl-MEA nor 2.5×10^-8 M retinol had an effect on keratinocyte proliferation
